Data set [1] is described as follows: Metabolic stability in rat hepatocytes. The data set is classed as in vitro ADME. To be noted: male, Wistar, freshly isolated rat hepatocytes in suspension, 10^6 cells/ml, analysed over 24 h, read-out: T½ (converted). The text has this:
Hepatocytes from adult male Wistar rats (IFFA Credo, L'Arbresle, France) were isolated by an in situ liver perfusion using collagenase (purchased from Sigma (St. Louis, Mo., U.S.A), according to a procedure described by Seglen (Preparation of isolated rat liver cell, Methods Cell Biol. 13, 29–83, 1976) and modified by Williams et al. (Rat hepatocyte primary culture. III. Improved dissociation and attachment techniques and the enhancement of survival by culture medium, in vitro 13: 809–817, 1977). After estimation of cell viability by the peripheral refractoriness of intact cells in phase contrast microscopy and the trypan blue test, freshly isolated hepatocytes were washed in basal William's medium E (WME) supplemented with 10% (v/v) fetal calf serum, 70 μM cortisol, 2 mM L-glutamine, 10 mM HEPES buffer, and 4 mM NaOH. […]
Each substance of each concentration will be analysed 10 times during 24 h (1 h, 2 h, 4 h, 6 h, 8 h, 10 h, 12 h, 16 h, 20 h, 24 h).

The conditions of data set [2]: literature values; cited from earlier work.

Where two headings read alike, the source gives them in different places.

Take `CC[C@H](C)[C@H](NC(C)C)C(=O)N[C@H](C(=O)N1CCC[C@H]1C(N)=O)[C@@H](C)CC` [N-Isopropyl-Ile-Ile-ProNH2]: the half-life in data set [1] was 2.6 h. Moreover, under “PAMPA”, the “PAMPA classification, predicted absorption after peroral application” value was “medium to highly absorbed”. For thyreoliberin [TRH, reference compound], the “Pampa Flux (%) Mean ± SEM” value (500 μM in Tris-buffer pH 7,4, diffusion time 16 h) was less than 10%. In addition, the “PAMPA classification, predicted absorption after peroral application” value (classification by flux rate) is listed as “weakly absorbed”.

With `CC[N+](C)(C)Cc1ccccc1Br` [Bretylium, reference compound], where the note is “PAMPA, 16 h, 500 μM, pH 7”, the “Pampa Flux (%) Mean ± SEM” value is reported as 0%. On to `CCNC(=O)[C@@H]1CCCN1C(=O)[C@H](Cc1ccccc1)NC(=O)[C@H]([C@@H](C)CC)N(CC)CC` [N,N-Diethyl-Ile-Phe-ProNHEt, N,N-diethyl-isoleucyl-phenylalanyl-L-proline ethylamide], for which the “PAMPA classification, predicted absorption after peroral application” value (PAMPA) is on record as “medium to highly absorbed”. The same measure, in the same setting: to `CC[C@H](C)[C@H](NC(=O)CN(CC)CC)C(=O)N1CCC[C@H]1C(N)=O` [N,N-Diethyl-Gly-Ile-ProNH2] belongs “medium to highly absorbed”. For the compound `C[C@]12CCC(=O)C=C1CC[C@@H]1[C@@H]2[C@@H](O)C[C@@]2(C)[C@H]1CC[C@]2(O)C(=O)CO` [Hydrocortisone], the “flux rates published by Kansy et al.” value in data set [2] is reported as 52%. For the compound `CC[C@H](C)[C@H](NC(=O)[C@H]([C@@H](C)CC)N(CC)CC)C(=O)N1CCC[C@H]1C(N)=O` [N,N-Diethyl-Ile-Ile-ProNH2, N,N-diethyl-isoleucyl-isoleucyl-prolineamide], the “PAMPA classification, predicted absorption after peroral application” value (PAMPA) is given as “medium to highly absorbed”.

For `O=c1ccc2ccccc2o1` [Coumarin, reference compound], the “Pampa Flux (%) Mean ± SEM” value (PAMPA, 16 h, 500 μM, pH 7) is listed as 72 ± 2%. Also, the “flux rates published by Kansy et al.” value in data set [2] was 66%.

The values are drawn from patent US7129213B2, “Tripeptides and tripeptide derivatives for the treatment of neurodegenerative diseases” (Neurotell AG, priority 2002, dated 2006).
